Data as given in patent publication US20200281845A1, “COMPOSITIONS COMPRISING LESPEDEZA PLANT EXTRACT” (Clariant International Ltd., priority 2017, published 2020).

Test system: Per2pro-LUC
Experiment: Improvement of circadian clock activity reduced by TCDD, Per2pro-LUC in HaCaT cells
Format: cell-based, human
Settings: TCDD 1.5 nM for 4 hours, compared to cells treated with solvent toluene alone
Experimental: The improvement effects of the extracts of Lespedeza bicolor Turcz, Lespedeza cuneata G. Don, Lespedeza maximowiczii C. K. Schneid and Lespedeza capitata were measured in skin circadian clock activity reduced by TCDD (2,3,7,8-Tetrachlorodibenzo-p-dioxin) which is an environmental hormone dioxin. HaCaT cells containing Per2pro-LUC were inoculated in a 96-well plate containing Hygromycine B at 200 ug/ml and 10% FBS in DMEM medium (1.4×10^4 cells/well), and cultured in a 5% CO2 incubator at 37° C. for 48 hours. After 48 hours, 50 ug/ml of the extracts of Lespedeza bicolor Turcz, Lespedeza cuneata G. Don and Lespedeza maximowiczii C. K. Schneid and Lespedeza capitata were each treated for 24 hours while being treated with TCDD (2,3,7,8-tetrachlorodibenzo-p-dioxin) 1.5 nM for 4 hours simultaneously, and then transferred to the medium for measuring Luciferase (DMEM containing HEPES 10 mM, Luciferin 1 mM, Hygromycine B 200 ug/ml, 10% FBS). […] K. Schneid and Lespedeza capitata in alleviating reduced biorhythm by environmental hormones. As shown here, cells treated with TCDD had 30% reduced absolute value for Per2pro-LUC rhythm, compared to cells that were treated with the solvent toluene alone. In contrast to this, cells treated with the extracts of Lespedeza bicolor Turcz, Lespedeza cuneata G. Don, Lespedeza maximowiczii C.

Clc1cc2c(cc1Cl)Oc1cc(Cl)c(Cl)cc1O2 [TCDD, 2,3,7,8-Tetrachlorodibenzo-p-dioxin] was tested, and the “reduced absolute value for Per2pro-LUC rhythm” value was 30%.
